{
  "source": "paper PMC11500415",
  "about": "“Chemical inhibition of stomatal differentiation by perturbation of the master-regulatory bHLH heterodimer via an ACT-Like domain” (Nature Communications, 2024)",
  "target": "T1, MUTE_ACTLR133A_R134A (Arabidopsis thaliana, UniProt Q9M8K6, R133A/R134A)",
  "T1 construct": "MUTE-ACTL (114-202); made in house; host or cells: E. coli BL21",
  "T1 sequence (Q9M8K6 114-202 R133A/R134A)": "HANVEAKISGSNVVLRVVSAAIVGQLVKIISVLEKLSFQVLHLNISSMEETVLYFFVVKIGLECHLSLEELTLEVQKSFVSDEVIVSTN",
  "test": "BLI direct binding",
  "design": "species or system A. thaliana",
  "conditions": "for koff: read-out: kdis(1/s), MUTE_R133A_R134A on Anti-GST sensor",
  "text": "A. thaliana SCRM (1-494), ΔNSPCH (98-364), MUTE (1-202), ΔNFAMA (190-414), MUTEΔC (1-114), MUTER133A_R134A, MUTEE162A_E163A, MUTER133A_R134A_E162A_E163A, SCRM-ACTL (405-494), MUTE-ACTL (114-202), SPCH-ACTL (285-364), FAMA-ACTL (306-414), MUTE_ACTLR133A_R134A, MUTE_ACTLE162A_E163A, MUTE_ACTLR133A_R134A_E162A_E163A were cloned into pGEX-4T-1 vector with an N-terminal GST tag and a thrombin cleavage sequence. For protein expression, the constructs were transformed into E. coli strain BL21. For each transformant, a single colony was selected and incubated in 10 ml LB liquid media. The overnight-incubated E. coli suspensions were transferred to 1 L LB medium and incubated at 37 °C for around 2 h until the OD600 reached 0.4–0.6. The isopropyl β-D-1-thiogalactopyranoside ([…] of final concentration) was added to the cultures and the strains were incubated at 22 °C for a further 18 h. GST-fused proteins were purified using glutathione agarose resin. The soluble portion of the cell lysate was loaded onto a GST-Sepharose column. Nonspecifically bound proteins were removed by washing the column with 20 mM Tris pH 8.0, 200 mM NaCl. The bound GST-fused protein was eluted with 10 mm glutathione and 20 mM Tris pH 8.0, 200 mM NaCl. The GST-fused proteins were exchanged with phosphate-buffered saline buffer, and then the solution was treated with 50 μg of thrombin for 10–12 h at 16 ^οC. The GST portion of the protein was cleaved during thrombin digestion, and then the whole solution was reloaded onto the glutathione S-transferase column to obtain pure protein. The purified proteins were further purified by gel filtration on a Superdex-200 (GE) column using fast protein liquid chromatography and phosphate buffer (pH 7.2) as the eluent. The purity of the protein was checked by SDS-PAGE. For detailed lists of oligo DNA and plasmid information, see Supplementary Tables 5, 6, respectively.\nThe binding affinities of SCRM to MUTE / MUTER133A_R134A / MUTEE162A_E163A / MUTER133A_R134A_E162A_E163A in presence and absence of Stomidazolone (3) and its analogues (AYSJ1059 (5) and AYSJ1061 (6)), and Stomidazolone / AYSJ1059 / AYSJ1061 interactions with GST-tagged SCRM, MUTE, SPCH, FAMA, MUTE ΔACTL, MUTE_ACTL, SCRM_ACTL, SPCH_ACTL and FAMA_ACTL, MUTER133A_134A, MUTEE162A_E163A, MUTER133A_R134A_E162A_E163A were measured using the Octet Red96 system (ForteBio, Pall Life Sciences) following the manufacturer’s protocols. The optical probes coated with anti-GST were first loaded with 500 nM GST tagged proteins before kinetic binding analyses. The experiment was performed in 96-well plates maintained at 30 °C. Each well was loaded with 200 μL reaction volume for the experiment. The binding buffer used in these experiments contained 1× PBS supplemented with 2% DMSO, 0.02% Tween20. The concentrations of the Stomidazolone as the analyte in the binding buffer were 100, 50, 25, 12.5, 6.25, 3.12, and 1.56 μM. There was no binding of the analytes to the unloaded probes as shown by the control wells. Binding kinetics to all seven concentrations of the analytes were measured simultaneously using default parameters on the instrument. The data were analyzed using the Octet data analysis software. The association and dissociation curves were fit with the 1:1 homogeneous ligand model. The kobs (observed rate constant) values were used to calculate Kd, with steady-state analysis of the direct binding. See Supplementary Table 3 for details.",
  "key": {"[1]": {"conditions": "MUTE_R133A_R134A on Anti-GST sensor, Stomid 3.12 µM, rep-1, rep-2"}, "[2]": {"conditions": "MUTE_R133A_R134A on Anti-GST sensor, Stomid 6.25 µM, rep-1, rep-2"}, "[3]": {"conditions": "MUTE_R133A_R134A on Anti-GST sensor, Stomid 12.5 µM, rep-1, rep-2"}, "[4]": {"conditions": "MUTE_R133A_R134A on Anti-GST sensor, Stomid 25 µM, rep-1, rep-2"}, "[5]": {"conditions": "MUTE_R133A_R134A on Anti-GST sensor, Stomid 50 µM, rep-1, rep-2"}, "[6]": {"conditions": "MUTE_R133A_R134A on Anti-GST sensor, Stomid 100 µM, rep-1, rep-2"}, "[7]": {"conditions": "MUTE_R133A_R134A on Anti-GST sensor, Stomid 200 µM, rep-1, rep-2"}},
  "note": "Where “and” joins values, the source holds several entries; their conditions need not be identical. Equal values may be shown once. Read-outs that look alike come from different tables or passages of the source.",
  "data": [
    {"compound": "O=C1C(c2ccccc2)=NC(NS(=O)(=O)c2ccccc2)(c2ccccc2)N1S(=O)(=O)c1ccccc1", "note": "(centres unmarked) [Stomidazolone]", "values": [
      {"measurement": "Kd", "setting": "BLI, MUTE_ACTL R133A_R134A", "result": "120 ± 5.5", "unit": "µM"},
      {"measurement": "Kd", "setting": "[1]", "result": "127 µM and 126 µM"},
      {"measurement": "RMax", "setting": "[1]", "result": "0.03 and 0.048"},
      {"measurement": "Req/Rmax(%)", "setting": "[1]", "result": "93.1% and 100%"},
      {"measurement": "Response", "setting": "[1]", "result": "0.027 and 0.0456"},
      {"measurement": "Kd", "setting": "[2]", "result": "128 µM and 127 µM"},
      {"measurement": "RMax", "setting": "[2]", "result": "0.06 and 0.08"},
      {"measurement": "Req/Rmax(%)", "setting": "[2]", "result": 100, "unit": "%"},
      {"measurement": "Response", "setting": "[2]", "result": "0.058 and 0.079"},
      {"measurement": "kobs", "setting": "[2]", "result": "0.00193 s⁻¹ and 0.00258 s⁻¹"},
      {"measurement": "kon", "setting": "[2]", "result": 976, "unit": "M⁻¹ s⁻¹"},
      {"measurement": "Kd", "setting": "[3]", "result": "126 µM and 124 µM"},
      {"measurement": "RMax", "setting": "[3]", "result": "0.092 and 0.085"},
      {"measurement": "Req/Rmax(%)", "setting": "[3]", "result": "93.1% and 100%"},
      {"measurement": "Response", "setting": "[3]", "result": "0.092 and 0.081"},
      {"measurement": "kdis", "setting": "[3]", "result": 0.124, "unit": "s⁻¹"},
      {"measurement": "Kd", "setting": "[4]", "result": "128 µM and 126 µM"},
      {"measurement": "Req/Rmax(%)", "setting": "[4]", "result": "78.8% and 93.9%"},
      {"measurement": "kdis", "setting": "[4]", "result": 0.123, "unit": "s⁻¹"},
      {"measurement": "kobs", "setting": "[4]", "result": "0.00186 s⁻¹ and 0.00281 s⁻¹"},
      {"measurement": "kon", "setting": "[4]", "result": 975, "unit": "M⁻¹ s⁻¹"},
      {"measurement": "Kd", "setting": "[5]", "result": "127 µM and 125 µM"},
      {"measurement": "RMax", "setting": "[5]", "result": "0.195 and 0.225"},
      {"measurement": "Response", "setting": "[5]", "result": "0.193 and 0.2221"},
      {"measurement": "kdis", "setting": "[5]", "result": 0.122, "unit": "s⁻¹"},
      {"measurement": "kon", "setting": "[5]", "result": 976, "unit": "M⁻¹ s⁻¹"},
      {"measurement": "Kd", "setting": "[6]", "result": "130 µM and 127 µM"},
      {"measurement": "RMax", "setting": "[6]", "result": "0.244 and 0.289"},
      {"measurement": "Req/Rmax(%)", "setting": "[6]", "result": "96.5% and 96.6%"},
      {"measurement": "Response", "setting": "[6]", "result": "0.242 and 0.284"},
      {"measurement": "kobs", "setting": "[6]", "result": "0.00717 s⁻¹ and 0.00706 s⁻¹"},
      {"measurement": "kon", "setting": "[6]", "result": 980, "unit": "M⁻¹ s⁻¹"},
      {"measurement": "Kd", "setting": "[7]", "result": "127 µM and 130 µM"},
      {"measurement": "RMax", "setting": "[7]", "result": "0.344 and 0.38"},
      {"measurement": "Req/Rmax(%)", "setting": "[7]", "result": "99.9% and 99.8%"},
      {"measurement": "Response", "setting": "[7]", "result": "0.341 and 0.375"},
      {"measurement": "kdis", "setting": "[7]", "result": 0.125, "unit": "s⁻¹"},
      {"measurement": "kobs", "setting": "[7]", "result": "0.0285 s⁻¹ and 0.0284 s⁻¹"},
      {"measurement": "kon", "setting": "[7]", "result": 960, "unit": "M⁻¹ s⁻¹"},
      {"measurement": "koff", "setting": "Stomid 3.12 µM, rep-1, rep-2", "result": 0.122, "unit": "s⁻¹"},
      {"measurement": "koff", "setting": "Stomid 6.25 µM, rep-1, rep-2", "result": 0.124, "unit": "s⁻¹"},
      {"measurement": "koff", "setting": "Stomid 12.5 µM, rep-1, rep-2", "result": 0.125, "unit": "s⁻¹"},
      {"measurement": "koff", "setting": "Stomid 25 µM, rep-1, rep-2", "result": 0.125, "unit": "s⁻¹"},
      {"measurement": "koff", "setting": "Stomid 50 µM, rep-1, rep-2", "result": 0.123, "unit": "s⁻¹"},
      {"measurement": "koff", "setting": "Stomid 100 µM, rep-1, rep-2", "result": 0.125, "unit": "s⁻¹"},
      {"measurement": "koff", "setting": "Stomid 200 µM, rep-1, rep-2", "result": 0.126, "unit": "s⁻¹"},
      {"measurement": "kon", "setting": "read-out: kon(1/Ms), MUTE_R133A_R134A on Anti-GST sensor, Stomid 3.12 µM, rep-1, rep-2", "result": 966, "unit": "M⁻¹ s⁻¹"},
      {"measurement": "kon", "setting": "read-out: kon(1/Ms), MUTE_R133A_R134A on Anti-GST sensor, Stomid 6.25 µM, rep-1, rep-2", "result": 970, "unit": "M⁻¹ s⁻¹"},
      {"measurement": "kon", "setting": "read-out: kon(1/Ms), MUTE_R133A_R134A on Anti-GST sensor, Stomid 12.5 µM, rep-1, rep-2", "result": 990, "unit": "M⁻¹ s⁻¹"},
      {"measurement": "kon", "setting": "read-out: kon(1/Ms), MUTE_R133A_R134A on Anti-GST sensor, Stomid 25 µM, rep-1, rep-2", "result": 980, "unit": "M⁻¹ s⁻¹"},
      {"measurement": "kon", "setting": "read-out: kon(1/Ms), MUTE_R133A_R134A on Anti-GST sensor, Stomid 50 µM, rep-1, rep-2", "result": 970, "unit": "M⁻¹ s⁻¹"},
      {"measurement": "kon", "setting": "read-out: kon(1/Ms), MUTE_R133A_R134A on Anti-GST sensor, Stomid 100 µM, rep-1, rep-2", "result": 960, "unit": "M⁻¹ s⁻¹"},
      {"measurement": "kon", "setting": "read-out: kon(1/Ms), MUTE_R133A_R134A on Anti-GST sensor, Stomid 200 µM, rep-1, rep-2", "result": 990, "unit": "M⁻¹ s⁻¹"}
    ]}
  ]
}
